Settings: 343.14 K, Liquid, Vibrating tube method

CCCCCCC(=O)OCC(COC(=O)CCCCCC)(COC(=O)CCCCCC)COC(=O)CCCCCC [pentaerythritol tetraheptanoate]
Settings | mass density [kg/m3]
14033 kPa | 950.8
14046 kPa | 950.8
14058 kPa | 950.9
14074 kPa | 950.7
14087 kPa | 950.9
14100 kPa | 950.9
14113 kPa | 950.8
14129 kPa | 950.8
14142 kPa | 950.8
14157 kPa | 951
14170 kPa | 951
14183 kPa | 951
14199 kPa | 951
14212 kPa | 950.9
14225 kPa | 950.9
14239 kPa | 951
14255 kPa | 951
14268 kPa | 950.9
14281 kPa | 951.1
14298 kPa | 951
14311 kPa | 951.1
14324 kPa | 951
14340 kPa | 950.9
14354 kPa | 951.1
14367 kPa | 951.1
14383 kPa | 951
16135 kPa | 952.3
16152 kPa | 952.4
16173 kPa | 952.3
16190 kPa | 952.3
16208 kPa | 952.3
16228 kPa | 952.4
16245 kPa | 952.4
16263 kPa | 952.3
16283 kPa | 952.4
16301 kPa | 952.4
16319 kPa | 952.4
16339 kPa | 952.5
16357 kPa | 952.5
16376 kPa | 952.4
16394 kPa | 952.5
16415 kPa | 952.5
16433 kPa | 952.5
16451 kPa | 952.7
16472 kPa | 952.5
16490 kPa | 952.5
16508 kPa | 952.6
16526 kPa | 952.6
16548 kPa | 952.6
16566 kPa | 952.5
16585 kPa | 952.6
16607 kPa | 952.7
16626 kPa | 952.7
16645 kPa | 952.7
16664 kPa | 952.6
16682 kPa | 952.6
16704 kPa | 952.7
16722 kPa | 952.8
16744 kPa | 952.8
16763 kPa | 952.7
16781 kPa | 952.7
16800 kPa | 952.7
16822 kPa | 952.8
16841 kPa | 952.8
16863 kPa | 952.8
16901 kPa | 952.8
16924 kPa | 952.8
16943 kPa | 952.9
16962 kPa | 953
16981 kPa | 952.9
17004 kPa | 952.9
17022 kPa | 953
17042 kPa | 953
17065 kPa | 953
17084 kPa | 953.1
17107 kPa | 952.9
17126 kPa | 952.9
17146 kPa | 953
17165 kPa | 953
17188 kPa | 953.1
17208 kPa | 953
17227 kPa | 953.1
17251 kPa | 953.1
17270 kPa | 953.2
17294 kPa | 953.2
17314 kPa | 953.2
17334 kPa | 953.1
17358 kPa | 953.1
17378 kPa | 953.1
17398 kPa | 953.2
17419 kPa | 953
17443 kPa | 953.1
17593 kPa | 953.4
17613 kPa | 953.2
17638 kPa | 953.3
17659 kPa | 953.4
17680 kPa | 953.3
17701 kPa | 953.4
17722 kPa | 953.4
17747 kPa | 953.4
17768 kPa | 953.5
17789 kPa | 953.5
17815 kPa | 953.5
17835 kPa | 953.5
17860 kPa | 953.4
17902 kPa | 953.5
17928 kPa | 953.4
18040 kPa | 953.6
18066 kPa | 953.6
18088 kPa | 953.5
18109 kPa | 953.6
18130 kPa | 953.7

Reference: the NIST ThermoML archive (doi:10.1021/je060271a)
